Measured values published in BindingDB's records for patent US20230303513 (Bristol-Myers Squibb, 2023).

Key:
[1] = biological target: T1, fMet-Leu-Phe receptor (Homo sapiens, UniProt P21462); experiment: cAMP Assay
T1 sequence (P21462 whole entry): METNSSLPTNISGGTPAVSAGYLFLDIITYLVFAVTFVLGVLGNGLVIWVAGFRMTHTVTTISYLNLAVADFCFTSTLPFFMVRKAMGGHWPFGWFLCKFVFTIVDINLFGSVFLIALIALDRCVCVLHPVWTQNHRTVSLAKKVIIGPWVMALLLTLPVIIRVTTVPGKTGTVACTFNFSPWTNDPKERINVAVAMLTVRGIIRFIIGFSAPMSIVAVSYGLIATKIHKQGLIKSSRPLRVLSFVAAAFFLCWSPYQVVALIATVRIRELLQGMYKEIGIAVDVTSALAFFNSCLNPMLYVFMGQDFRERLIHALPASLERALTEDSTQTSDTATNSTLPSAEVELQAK
Method: (§1) FPR2 and FPR1 Cyclic Adenosine Monophosphate (cAMP) Assays were used to measure the activity of the compounds in this patent. FPR2 and FPR1 Cyclic Adenosine Monophosphate (cAMP) Assays. A mixture of forskolin (5 μM final for FPR2 or 10 μM final for FPR1) and IBMX (200 μM final) were added to 384-well Proxiplates (Perkin-Elmer) pre-dotted with test compounds in DMSO (1% final) at final concentrations in the range of 0.020 nM to 100 μM. Chinese Hamster Ovary cells (CHO) overexpressing human FPR1 or human FPR2 receptors were cultured in F-12 (Ham's) medium supplemented with 10% qualified FBS, 250 μg/ml zeocin and 300 μg/ml hygromycin (Life Technologies). Reactions were initiated by adding 2,000 human FPR2 cells per well or 4,000 human FPR1 cells per well in Dulbecco's PBS (with calcium and magnesium) (Life Technologies) supplemented with 0.1% BSA (Perkin-Elmer). The reaction mixtures were incubated for 30 min at room temperature. The level of intracellular cAMP was determined using the HTRF HiRange cAMP assay reagent kit (Cisbio) according to manufacturer's instruction. Solutions of cryptate conjugated anti-cAMP and d2 flurorophore-labelled cAMP were made in a supplied lysis buffer separately. Upon completion of the reaction, the cells were lysed with equal volume of the d2-cAMP solution and anti-cAMP solution.

[2] = biological target: T2, N-formyl peptide receptor 2 (Homo sapiens, UniProt P25090); experiment: cAMP Assay
T2 sequence (P25090 whole entry): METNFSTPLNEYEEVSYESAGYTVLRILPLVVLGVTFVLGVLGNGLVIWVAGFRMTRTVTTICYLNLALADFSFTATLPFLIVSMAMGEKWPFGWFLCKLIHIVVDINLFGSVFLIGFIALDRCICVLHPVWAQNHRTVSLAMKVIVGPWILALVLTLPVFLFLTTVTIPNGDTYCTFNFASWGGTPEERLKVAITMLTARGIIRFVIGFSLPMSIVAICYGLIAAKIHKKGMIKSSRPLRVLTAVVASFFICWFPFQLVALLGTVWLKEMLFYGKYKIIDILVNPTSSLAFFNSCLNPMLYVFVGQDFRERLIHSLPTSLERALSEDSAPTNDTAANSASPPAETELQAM
Method: as §1

| EC50 [1] | EC50 [2] | Structure (SMILES) |
| --- | --- | --- |
| 3600 nM | 41 nM | COCC(CO)n1cccc(N2C(=O)[C@@H](NC(=O)N[C@H]3CC[C@H](C(F)F)CC3)[C@H](c3c(F)cc(OC)cc3F)[C@@H]2C)c1=O (some centres undefined) [US20230303513, Example 63] |
| > 10000 nM | 6.2 nM | COCCn1cccc(N2C[C@@H](c3ccc(Cl)cc3)[C@H](NC(=O)NC3CCc4cc(OC)ccc4C3)C2=O)c1=O (some centres undefined) [US20230303513, Example 55] |
